Data published in ChEMBL document CHEMBL5729561, “Compounds and uses thereof” (2023).

Test: On day 0 cells were seeded in 30 μL media into each well of 384-well cell culture plates. The seeding density was 8000 cells/well. On day 1, cells were treated with 30 nL DMSO or 30 nL of 3-fold serially DMSO-diluted compounds (10 points in duplicates with 1 μM as final top dose). Subsequently plates were incubated for 6 hours in a standard tissue culture incubator and equilibrated at room temperature for 15 minutes. Nanoluciferase activity was measured by adding 15 μL of freshly prepared Nano-Glo Luciferase Assay Reagent (Promega N1130), shaking the plates for 10 minutes and reading the bioluminescence using an EnVision reader.
Format: cell-based

Row | SMILES | IC50
1 | COc1cc(-c2cn(C)c(=O)c3cnccc23)cc(OC)c1CN1CCC2(CC1)CN(C(=O)CCOCCOc1cccc3c1C(=O)N(C1CCC(=O)NC1=O)C3=O)C2 (stereo not drawn) | in the range around 0.055 µM
2 | COc1cc(-c2cn(C)c(=O)c3cnccc23)cc(OC)c1ON1CC2(CC(NC(=O)CCOCCOc3ccc4c(c3)C(=O)N(C3CCC(=O)NC3=O)C4=O)C2)C1 (stereo not drawn) | in the range around 0.55 µM
3 | COc1cc(-c2cn(C)c(=O)c3cnccc23)cc(OC)c1CN1CCC2(C[C@@H]2NC(=O)CCOCCOc2cccc3c2C(=O)N(C2CCC(=O)NC2=O)C3=O)C1 (stereo partly drawn) | in the range around 0.55 µM
4 | COc1cc(-c2cn(C)c(=O)c3cnccc23)cc(OC)c1CN1CC2(CCC2NC(=O)CCOCCOc2cccc3c2C(=O)N(C2CCC(=O)NC2=O)C3=O)C1 (stereo not drawn) | > 1 µM
5 | COc1cc(-c2cn(C)c(=O)c3cnccc23)cc(OC)c1CN1CCC2(C[C@H]2NC(=O)CCOCCOc2cccc3c2C(=O)N(C2CCC(=O)NC2=O)C3=O)C1 (stereo partly drawn) | in the range around 0.055 µM
6 | COc1cc(-c2cn(C)c(=O)c3cnccc23)cc(OC)c1CN1CCC2CCN(C(=O)CCOCCOc3ccc4c(c3)C(=O)N(C3CCC(=O)NC3=O)C4=O)CC21 (stereo not drawn) | < 0.01 µM
7 | COc1cc(-c2cn(C)c(=O)c3cnccc23)cc(OC)c1CN(C)CCc1cn(CCCCOc2ccc3c(c2)C(=O)N(C2CCC(=O)NC2=O)C3=O)nn1 (stereo not drawn) | in the range around 0.055 µM
8 | COc1cc(-c2cn(C)c(=O)c3cnccc23)cc(OC)c1CN1CCC2(CCN(C(=O)CCOCCOc3ccc4c(c3)C(=O)N(C3CCC(=O)NC3=O)C4=O)CC2)C1 (stereo not drawn) | in the range around 0.055 µM
9 | COc1cc(-c2cn(C)c(=O)c3cnccc23)cc(OC)c1CN1CCC2CCN(C(=O)CCOCCOc3cccc4c3C(=O)N(C3CCC(=O)NC3=O)C4=O)CC21 (stereo not drawn) | in the range around 0.055 µM
10 | COc1cc(-c2cn(C)c(=O)c3cnccc23)cc(OC)c1CN1CCC(C2CCN(C(=O)CCOCCOc3cccc4c3C(=O)N(C3CCC(=O)NC3=O)C4=O)C2)CC1 (stereo not drawn) | in the range around 0.055 µM
11 | COc1cc(-c2cn(C)c(=O)c3cnccc23)cc(OC)c1CN1CCC12CN(C(=O)CCOCCOc1ccc3c(c1)C(=O)N(C1CCC(=O)NC1=O)C3=O)C2 (stereo not drawn) | in the range around 0.55 µM
12 | COc1cc(-c2cn(C)c(=O)c3cnccc23)cc(OC)c1CN1CC2CN(C(=O)CCOCCOc3ccc4c(c3)C(=O)N(C3CCC(=O)NC3=O)C4=O)CCC21 (stereo not drawn) | < 0.01 µM
13 | COc1cc(-c2cn(C)c(=O)c3cnccc23)cc(OC)c1CN1CCC12CCN(C(=O)CCOCCOc1cccc3c1C(=O)N(C1CCC(=O)NC1=O)C3=O)C2 (stereo not drawn) | in the range around 0.55 µM
14 | COc1cc(-c2cn(C)c(=O)c3cnccc23)cc(OC)c1CN(C)Cc1cn(CCOc2ccc3c(c2)C(=O)N(C2CCC(=O)NC2=O)C3=O)nn1 (stereo not drawn) | in the range around 0.55 µM
15 | COc1cc(-c2cn(C)c(=O)c3cnccc23)cc(OC)c1CN1CCC(OC2CCN(C(=O)CCOCCOc3cccc4c3C(=O)N(C3CCC(=O)NC3=O)C4=O)C2)CC1 (stereo not drawn) | in the range around 0.055 µM
16 | COc1cc(-c2cn(C)c(=O)c3cnccc23)cc(OC)c1CN1CC2(CCN(C(=O)CCOCCOc3cccc4c3C(=O)N(C3CCC(=O)NC3=O)C4=O)CC2)C1 (stereo not drawn) | in the range around 0.55 µM
17 | COc1cc(-c2cn(C)c(=O)c3cnccc23)cc(OC)c1CN1CCC2(CCN(C(=O)CCOCCOc3cccc4c3C(=O)N(C3CCC(=O)NC3=O)C4=O)C2)C1 (stereo not drawn) | < 0.01 µM
18 | COc1cc(-c2cn(C)c(=O)c3cnccc23)cc(OC)c1CN1CCC(COC2CCN(C(=O)CCOCCOc3cccc4c3C(=O)N(C3CCC(=O)NC3=O)C4=O)C2)CC1 (stereo not drawn) | in the range around 0.055 µM
19 | COc1cc(-c2cn(C)c(=O)c3cnccc23)cc(OC)c1CN1CC2(CC(NC(=O)CCOCCOc3cccc4c3C(=O)N(C3CCC(=O)NC3=O)C4=O)C2)C1 (stereo not drawn) | in the range around 0.055 µM

Row | SMILES | IC50
20 | COc1cc(-c2cn(C)c(=O)c3cnccc23)cc(OC)c1CN(C)Cc1cn(CCCCOc2ccc3c(c2)C(=O)N(C2CCC(=O)NC2=O)C3=O)nn1 (stereo not drawn) | in the range around 0.055 µM
21 | COc1cc(-c2cn(C)c(=O)c3cnccc23)cc(OC)c1CN1CC2(CCC2NC(=O)CCOCCOc2ccc3c(c2)C(=O)N(C2CCC(=O)NC2=O)C3=O)C1 (stereo not drawn) | in the range around 0.55 µM
22 | COc1cc(-c2cn(C)c(=O)c3cnccc23)cc(OC)c1CN1CCC2(C1)CN(C(=O)CCOCCOc1ccc3c(c1)C(=O)N(C1CCC(=O)NC1=O)C3=O)C2 (stereo not drawn) | in the range around 0.055 µM
23 | COc1cc(-c2cn(C)c(=O)c3cnccc23)cc(OC)c1CN1CC2(CCN(C(=O)CCOCCOc3ccc4c(c3)C(=O)N(C3CCC(=O)NC3=O)C4=O)C2)C1 (stereo not drawn) | < 0.01 µM
24 | COc1cc(-c2cn(C)c(=O)c3cnccc23)cc(OC)c1CN1CC(CCNC(=O)CCOCCOc2ccc3c(c2)C(=O)N(C2CCC(=O)NC2=O)C3=O)C1 (stereo not drawn) | in the range around 0.55 µM
25 | COc1cc(-c2cn(C)c(=O)c3cnccc23)cc(OC)c1CN(C)Cc1cn(CCCOc2ccc3c(c2)C(=O)N(C2CCC(=O)NC2=O)C3=O)nn1 (stereo not drawn) | in the range around 0.55 µM
26 | COc1cc(-c2cn(C)c(=O)c3cnccc23)cc(OC)c1ON1CCC2(CCN(C(=O)CCOCCOc3cccc4c3C(=O)N(C3CCC(=O)NC3=O)C4=O)CC2)C1 (stereo not drawn) | < 0.01 µM
27 | COc1cc(-c2cn(C)c(=O)c3cnccc23)cc(OC)c1CN1CCC2(C1)CN(C(=O)CCOCCOc1cccc3c1C(=O)N(C1CCC(=O)NC1=O)C3=O)C2 (stereo not drawn) | in the range around 0.055 µM
28 | COc1cc(-c2cn(C)c(=O)c3cnccc23)cc(OC)c1CN1CCC12CN(C(=O)CCOCCOc1cccc3c1C(=O)N(C1CCC(=O)NC1=O)C3=O)C2 (stereo not drawn) | in the range around 0.55 µM
29 | COc1cc(-c2cn(C)c(=O)c3cnccc23)cc(OC)c1CN1CCC(COC2CCN(C(=O)CCOCCOc3ccc4c(c3)C(=O)N(C3CCC(=O)NC3=O)C4=O)C2)CC1 (stereo not drawn) | < 0.01 µM
30 | COc1cc(-c2cn(C)c(=O)c3cnccc23)cc(OC)c1CN1CCC2(CCN(C(=O)CCOCCOc3ccc4c(c3)C(=O)N(C3CCC(=O)NC3=O)C4=O)C2)C1 (stereo not drawn) | in the range around 0.055 µM
31 | COc1cc(-c2cn(C)c(=O)c3cnccc23)cc(OC)c1CN(C)C1CCC12CCN(C(=O)CCOCCOc1cccc3c1C(=O)N(C1CCC(=O)NC1=O)C3=O)CC2 (stereo not drawn) | in the range around 0.055 µM
32 | COc1cc(-c2cn(C)c(=O)c3cnccc23)cc(OC)c1CN1CC2C1CCN2C(=O)CCOCCOc1cccc2c1C(=O)N(C1CCC(=O)NC1=O)C2=O (stereo not drawn) | < 0.01 µM
33 | COc1cc(-c2cn(C)c(=O)c3cnccc23)cc(OC)c1CN(C)CCc1cn(CCCOc2ccc3c(c2)C(=O)N(C2CCC(=O)NC2=O)C3O)nn1 (stereo not drawn) | in the range around 0.55 µM
34 | COc1cc(-c2cn(C)c(=O)c3cnccc23)cc(OC)c1CN1CCC2(CC1)CN(C(=O)CCOCCOc1ccc3c(c1)C(=O)N(C1CCC(=O)NC1=O)C3=O)C2 (stereo not drawn) | in the range around 0.055 µM
35 | COc1cc(-c2cn(C)c(=O)c3cnccc23)cc(OC)c1CN1CCC2(CC1)CC(NC(=O)CCOCCOc1ccc3c(c1)C(=O)N(C1CCC(=O)NC1=O)C3=O)C2 (stereo not drawn) | in the range around 0.055 µM
36 | COc1cc(-c2cn(C)c(=O)c3cnccc23)cc(OC)c1CN1CC2(CCN(C(=O)CCOCCOc3ccc4c(c3)C(=O)N(C3CCC(=O)NC3=O)C4=O)CC2)C1 (stereo not drawn) | in the range around 0.055 µM
37 | COc1cc(-c2cn(C)c(=O)c3cnccc23)cc(OC)c1CN(C)CCc1cn(CCOc2ccc3c(c2)C(=O)N(C2CCC(=O)NC2=O)C3=O)nn1 (stereo not drawn) | in the range around 0.055 µM
38 | COc1cc(-c2cn(C)c(=O)c3cnccc23)cc(OC)c1CN(C)CC1CC2(CCN(C(=O)CCOCCOc3cccc4c3C(=O)N(C3CCC(=O)NC3=O)C4=O)CC2)CO1 (stereo not drawn) | in the range around 0.055 µM
